Where two headings read alike, the source gives them in different places.
How the values were obtained:
[1] = system: RPE-Neo or RPE-MYC or RPE-MYC expressing an EGFP-Histone 2B fusion protein; assay: Phenotypic screening assay (arrest in mitosis or change in DNA content, IN-Cell Analyzer); format: cell-based; conditions: compounds at 20 nM to 20 μM, analysed 24, 48 or 72 hours after initiation of treatment
Procedure: (§1) Screening was conducted as described before (Li et al. 2019). Briefly, RPE-Neo or RPE-MYC or RPE-MYC expressing an EGFP-Histone 2B fusion protein were passaged as batches of 96-well plates, 18-24 hours before exposure to the chemical compounds of the present disclosure at concentrations from 20 nM to 20 μM. At 24, 48 or 72 hours after initiation of treatment, cells were analyzed for either an arrest in mitosis or a change in DNA content by GE 1N-Cell Analyzer 2000. MTT assays of cellular proliferation were performed as previously described (Li et al. 2019).
(§2) As set forth in table 2 below, an values of greater than or equal to 1 nM and less than or equal to 1.0 μM is marked “A”; a value greater than 1.00 μM and less than or equal to 10.0 μM is marked “B”; a value greater than 10.0 μM and less than or equal to 30.0 μM is marked “C”; and a value greater than 30.0 μM and less than 1000 μM is marked “D.”

RPE-Neo or RPE-MYC cells = assay: MTT assay of cellular proliferation; format: cell-based; conditions: compounds at 20 nM to 20 μM; read-out: Min. Effective conc. for Proliferative arrest (>50%)
Procedure: Human cancer cell lines were obtained from ATCC and cultured in DMEM (Gibco, Cleveland. TN, USA) supplemented with 5% fetal bovine serum (Gibco), penicillin (100 U/mL)-streptomycin (100 μg/mL) (Gibco, Cat. No. 15140-122), 2 mM L-glutamine (Gibco, 200 mM solution, Cat. No. 25030081), and 1 mM sodium pyruvate (Gibco, 100 mM solution, Cat. No. 11360070) at 37° C. in a humidified incubator that was maintained at 5% CO2.
as §1, §2

[2] = read-out: Min. Effective conc. for Along with Cell Death
[3] = read-out: Min. Effective conc. for Mitotic Arrest (>5%)
[4] = read-out: Min. Effective conc. for Polyploidy (≥5%)

Measured: minimal effective concentration

Cc1ccc(CN2C(=O)CC(C=O)=C(Cl)c3ccccc32)cc1F [Compound 7-1, 5-chloro-1-(3-fluoro-4-methylbenzyl)-2-oxo-2,3-dihydro-1H-benzo[b]azepine-4-carbaldehyde]
0.001 to 1 µM: [1]; [2] | [1]; [3] | [1]; [4] | RPE-Neo or RPE-MYC cells

Cc1ccc(CN2C(=O)CC(c3cnco3)=C(Cl)c3ccccc32)cc1F [Compound 8-1, 5-chloro-1-(3-fluoro-4-methylbenzyl)-4-(oxazol-5-yl)-1,3-dihydro-2H-benzo[b]azepin-2-one]
0.001 to 1 µM: [1]; [2] | [1]; [3] | [1]; [4] | RPE-Neo or RPE-MYC cells

Cc1ccc(CN2C(=O)CC(c3cnco3)=C(Br)c3ccccc32)cc1F [Compound 8-2, 5-bromo-1-(3-fluoro-4-methylbenzyl)-4-(oxazol-5-yl)-1,3-dihydro-2H-benzo[b]azepin-2-one]
0.001 to 1 µM: [1]; [2] | [1]; [3] | [1]; [4] | RPE-Neo or RPE-MYC cells

Cc1ccc(CN2C(=O)CC(c3cnco3)=C(Br)c3ccc(Br)cc32)cc1F [Compound 8-3, 5,8-dibromo-1-(3-fluoro-4-methylbenzyl)-4-(oxazol-5-yl)-1,3-dihydro-2H-benzo[b]azepin-2-one]
0.001 to 1 µM: [1]; [2] | [1]; [3] | [1]; [4] | RPE-Neo or RPE-MYC cells

Cc1ccc(CN2C(=O)CC(c3cnco3)=C(Cl)c3ccc(C#N)cc32)cc1F [Compound 8-4, 5-chloro-1-(3-fluoro-4-methylbenzyl)-4-(oxazol-5-yl)-2-oxo-2,3-dihydro-1H-benzo[b]azepine-8-carbonitrile]
0.001 to 1 µM: [1]; [2] | [1]; [3] | [1]; [4] | RPE-Neo or RPE-MYC cells

COc1ccc2c(c1)N(Cc1ccc(C)c(F)c1)C(=O)CC(c1cnco1)=C2Cl [Compound 8-5, 5-chloro-1-(3-fluoro-4-methylbenzyl)-8-methoxy-4-(oxazol-5-yl)-1,3-dihydro-2H-benzo[b]azepin-2-one]
0.001 to 1 µM: [1]; [2] | [1]; [3] | [1]; [4] | RPE-Neo or RPE-MYC cells

COc1ccc2c(c1)N(Cc1ccc(C)c(F)c1)C(=O)CC(c1cnco1)=C2Br [Compound 8-6, 5-bromo-1-(3-fluoro-4-methylbenzyl)-8-methoxy-4-(oxazol-5-yl)-1,3-dihydro-2H-benzo[b]azepin-2-one]
0.001 to 1 µM: [1]; [2] | [1]; [3] | [1]; [4] | RPE-Neo or RPE-MYC cells

Cc1ccc(CN2C(=O)CC(c3cnco3)=C(Cl)c3ccc(O)cc32)cc1F [Compound 8-7, 5-chloro-1-(3-fluoro-4-methylbenzyl)-8-hydroxy-4-(oxazol-5-yl)-1,3-dihydro-2H-benzo[b]azepin-2-one]
0.001 to 1 µM: [1]; [2] | [1]; [3] | [1]; [4] | RPE-Neo or RPE-MYC cells

COCCOc1ccc2c(c1)N(Cc1ccc(C)c(F)c1)C(=O)CC(c1cnco1)=C2Cl [Compound 8-9]
0.001 to 1 µM: [1]; [2] | [1]; [3] | [1]; [4] | RPE-Neo or RPE-MYC cells

Cc1ccc(CN2C(=O)CC(c3cnco3)=C(Br)c3ccc(O)cc32)cc1F [Compound 8-10, 5-bromo-1-(3-fluoro-4-methylbenzyl)-8-hydroxy-4-(oxazol-5-yl)-1,3-dihydro-2H-benzo[b]azepin-2-one]
0.001 to 1 µM: [1]; [2] | [1]; [3] | [1]; [4] | RPE-Neo or RPE-MYC cells

Cc1ccc2c(c1)N(Cc1ccc(C)c(F)c1)C(=O)CC(c1cnco1)=C2Br [Compound 8-13, 5-bromo-1-(3-fluoro-4-methylbenzyl)-8-methyl-4-(oxazol-5-yl)-1,3-dihydro-2H-benzo[b]azepin-2-one]
0.001 to 1 µM: [1]; [2] | [1]; [3] | [1]; [4] | RPE-Neo or RPE-MYC cells

COC1=C(c2nc(C)no2)CC(=O)N(Cc2ccc(C)c(F)c2)c2cc(Br)ccc21 [Compound 10-1, 8-bromo-1-(3-fluoro-4-methylbenzyl)-5-methoxy-4-(3-methyl-1,2,4-oxadiazol-5-yl)-1,3-dihydro-2H-benzo[b]azepin-2-one]
0.001 to 1 µM: [1]; [2] | [1]; [3] | [1]; [4] | RPE-Neo or RPE-MYC cells

Cc1ccc(CN2C(=O)CC(c3ccon3)=C(Cl)c3ccccc32)cc1F [Compound 13-1, 5-chloro-1-(3-fluoro-4-methylbenzyl)-4-(isoxazol-3-yl)-1,3-dihydro-2H-benzo[b]azepin-2-one]
0.001 to 1 µM: [1]; [2] | [1]; [3] | [1]; [4] | RPE-Neo or RPE-MYC cells

Cc1ccc(CN2C(=O)CC(c3ccon3)=C(Br)c3ccccc32)cc1F [Compound 13-2]
0.001 to 1 µM: [1]; [2] | [1]; [3] | [1]; [4] | RPE-Neo or RPE-MYC cells

Cc1ccc(CN2C(=O)CC(c3nnc(N)s3)=C(Cl)c3ccccc32)cc1F [Compound 15-1, 4-(5-amino-1,3,4-thiadiazol-2-yl)-5-chloro-1-(3-fluoro-4-methylbenzyl)-1,3-dihydro-2H-benzo[b]azepin-2-one]
0.001 to 1 µM: [1]; [2] | [1]; [3] | [1]; [4] | RPE-Neo or RPE-MYC cells

Cc1ccc(CN2C(=O)CC(c3nnc(N)s3)=C(Br)c3ccccc32)cc1F [Compound 15-2, 4-(5-amino-1,3,4-thiadiazol-2-yl)-5-bromo-1-(3-fluoro-4-methylbenzyl)-1,3-dihydro-2H-benzo[b]azepin-2-one]
0.001 to 1 µM: [1]; [2] | [1]; [3] | [1]; [4] | RPE-Neo or RPE-MYC cells

Cc1noc(C2=C(Br)c3ccccc3N(Cc3ccc(C)c(F)c3)C(=O)C2)n1 [Compound 18-1, 5-bromo-1-(3-fluoro-4-methylbenzyl)-4-(3-methyl-1,2,4-oxadiazol-5-yl)-1,3-dihydro-2H-benzo[b]azepin-2-one]
0.001 to 1 µM: [1]; [2] | [1]; [3] | [1]; [4] | RPE-Neo or RPE-MYC cells

Cc1nnc(C2=C(Cl)c3ccccc3N(Cc3ccc(C)c(F)c3)C(=O)C2)o1 [Compound 20-1, 5-chloro-1-(3-fluoro-4-methylbenzyl)-4-(5-methyl-1,3,4-oxadiazol-2-yl)-1,3-dihydro-2H-benzo[b]azepin-2-one]
0.001 to 1 µM: [1]; [2] | [1]; [3] | [1]; [4] | RPE-Neo or RPE-MYC cells

Cc1nnc(C2=C(Br)c3ccccc3N(Cc3ccc(C)c(F)c3)C(=O)C2)o1 [Compound 20-2, 5-bromo-1-(3-fluoro-4-methylbenzyl)-4-(5-methyl-1,3,4-oxadiazol-2-yl)-1,3-dihydro-2H-benzo[b]azepin-2-one]
0.001 to 1 µM: [1]; [2] | [1]; [3] | [1]; [4] | RPE-Neo or RPE-MYC cells

Cc1ccc(CN2C(=O)CC(c3nnc(C4CC4)o3)=C(Br)c3ccccc32)cc1F [Compound 20-3, 5-bromo-4-(5-cyclopropyl-1,3,4-oxadiazol-2-yl)-1-(3-fluoro-4-methylbenzyl)-1,3-dihydro-2H-benzo[b]azepin-2-one]
0.001 to 1 µM: [1]; [2] | [1]; [3] | [1]; [4] | RPE-Neo or RPE-MYC cells

COc1ccc2c(c1)N(Cc1ccc(C)c(F)c1)C(=O)CC(c1nnc(C3CC3)o1)=C2Br [Compound 20-4, 5-bromo-4-(5-cyclopropyl-1,3,4-oxadiazol-2-yl)-1-(3-fluoro-4-methylbenzyl)-8-methoxy-1,3-dihydro-2H-benzo[b]azepin-2-one]
0.001 to 1 µM: [1]; [2] | [1]; [3] | [1]; [4] | RPE-Neo or RPE-MYC cells

Cc1ccc(CN2C(=O)CC(c3nnc(C4CC4)o3)=C(Cl)c3ccccc32)cc1F [Compound 20-5, 5-chloro-4-(5-cyclopropyl-1,3,4-oxadiazol-2-yl)-1-(3-fluoro-4-methylbenzyl)-1,3-dihydro-2H-benzo[b]azepin-2-one]
0.001 to 1 µM: [1]; [2] | [1]; [3] | [1]; [4] | RPE-Neo or RPE-MYC cells

— patent US20250011289A1, “1H-BENZO[B]AZEPIN-2(3H)-ONE COMPOUNDS, COMPOSITIONS AND METHODS OF TREATING CANCER” (Chengdu Anticancer Bioscience, Ltd., priority 2021, published 2025)
